Where two headings read alike, the source gives them in different places.
Experiments:
[1] = test system: strawberries; micro-organisms
Method: Fruits were treated without or with gas with each gas at 40 ppm. N=12, Differences between control and treated groups (P<0.05-P<0.005).

[2] = test system: Banana, Tomato and slices of avocado; yeast and/or bacteria
From the text: Representative samples include fruits (Banana), and vegetables (Tomato) and slices of avocado. Experiments were repeated at least four times and each food category included a minimum of six items in each group. The containers were made of gas impermeable Plexiglas that snugly fitted onto the container rim. Fruits were placed on regular kitchen towels that covered the bottom of the containers. Control and experimental group (Exp) of fruits were placed in separate containers. The amount of H2S—H2 gas within the Exp containers varied from 5-15 ppm during the course of exposure. When the level dropped below 5 ppm, the H2 gas was substituted. Experiment was carried out at room temperature for the durations shown. […] Growth of bacteria and yeast was checked by taking samples of food and streaking them over agar. Samples from each fruit were diluted in phosphate buffered saline, pH 7.4. From each sample, 20 microliters was streaked on agar plates and plates were maintained either at room temperature or at 37° C.

[3] = test system: humans; conditions: cited from earlier work
[4] = test system: mice; conditions: cited from earlier work
[5] = test system: bacteria and yeast; assay: Agar plates stored with H2S gas 40 ppm (FIG. 11, 104); format: cell-based; conditions: H2S 40 ppm
From the text: Representative samples of foods shown include fruits, and vegetables. […] Control foods were stored in closed containers. The containers were made of aluminum with a plastic lid that snugly fitted onto the container rim. […] The inlet and outlet valves were then closed. Using a H2S gas detector capable of detecting 1 to 500 ppm of H2S, no H2S was detected outside the chamber. […] There is small change in color, consistency, and of the same food group and there is no evidence of growth of yeast in the H2S gas-treated group. Growth of bacteria and yeast was checked by taking samples of food and streaking them over agar. […] Strawberry 80. […] This growth was quite evident on day 5 (arrows, 81). The fruit also lost its consistency and is discolored. […] Banana, 86. Growth of yeast is seen by day 8 in the control group. The fruit also lost its consistency and is discolored. […] A slice of banana 99. […] The fruit also lost its consistency and is discolored. […] Pistachio 101. […] Green bananas 102. Green bananas in each group were used in this experiment. The control bananas ripened, developed a yellow color that still maintained some of their green color on day 8. Tomatoes 103. Green tomatoes in each group were used in this experiment. […] Samples from each fruit were diluted in phosphate buffered saline, pH 7.4. […]

[6] = 0.01-0.1 mol/liter solutions at 18° C.; cited from earlier work
[7] = in water; cited from earlier work
[8] = in water; cited from earlier work; remark: listed apart in the source
[9] = test system: Strawberry, Blackberry, Raspberry, Banana, Tomato and Avocado; mold and/or bacteria
From the text: Representative samples include but are not limited to (Strawberry, Blackberry, Raspberry, Banana, Tomato and Avocado). Experiments were repeated at least four times and each food category included a minimum of six items in each group. The containers were made of gas impermeable plexi-glass that snugly fitted onto the container rim. Fruits were placed on regular kitchen towels that covered the bottom of the container. Control and experimental group (Exp) of fruits were placed in separate containers. […] When the level dropped below 5 ppm, the H2 gas was substituted. Experiment was carried out at room temperature for the durations shown.

[He] [Helium]
growth of micro-organisms [1]: retarded but did not prevent growth of micro-organisms
effect on ripening and oxidation ([1]; relative to Hydrogen): greater than Hydrogen
prevention of food spoilage ([1]; relative to Hydrogen): comparable with Hydrogen
food spoilage ([2]; closed environment, room temperature): prevents food spoilage

S [Hydrogen Sulfide]
lethal concentration for 50% of humans (LC50) ([3]; 5 minute exposure): 800 ppm
concentration at which the olfactory nerve is paralyzed ([3]; after a few inhalations): 100-150 ppm
concentration causing immediate collapse with loss of breathing ([3]; even after a single breath): over 1000 ppm
borderline concentration for eye irritation ([3]; in vivo): 10-20 ppm
concentration causing strong stimulation of the central nervous system and rapid breathing, leading to loss of breathing ([3]; in vivo): 530-1000 ppm
concentration leading to eye damage ([3]; in vivo): 50-100 ppm
concentration leading to pulmonary edema with the possibility of death ([3]; in vivo): 320-530 ppm
concentration with an exposure limit of 8 hours per day ([3]; in vivo): < 10 ppm
recognition threshold, concentration at which 50% of humans can detect the odor ([3]; in vivo): 0.0047 ppm
threshold level at which the oxidative (detoxifying) enzymes get overwhelmed ([3]; in vivo): 300-350 ppm
health consequences after the procedure ([4]; 81 ppm H2S, 6 hours): no negative health consequences
blood pressure ([4]; mice treated with Hydrogen Sulfide (81 ppm)): did not significantly decrease
side effects ([4]; range of 80 ppm): no side effects
time without growth following initiation of cultures [5]: up to 2 months
pKa (giving the hydro-sulfide ion HS^−) [6]: 6.9

[HH] [Hydrogen]
reaction rate constant k, .OH + H2 [7]: 4.2e+07 M⁻¹ s⁻¹
reaction rate constant k, .O^− + H2 [8]: 8e+07 M⁻¹ s⁻¹
food spoilage [2]: prevents food spoilage
food spoilage and growth of mold and/or bacteria ([9]; H2 5-45 ppm, closed container, room temperature): prevents food spoilage and retards but does not inhibit growth of mold and/or bacteria
day on which growth of mold is evident ([9]; Strawberry, Raspberry, Blackberry, control day 3, less severe than control): 4 days
discoloration and yeast growth on avocado slice ([9]; day 4): only moderate surface discoloration and no evidence of growth of yeast
ripening and surface discoloration of un-ripened bananas ([9]; day 4, versus control): less ripening and discoloration
ripening of un-ripened tomato ([9]; day 4, versus control): less ripening

— patent US20140342065A1 (priority 2012, published 2014)
